Measured values published in patent publication US9388179B2, “N-substituted indazole sulfonamide compounds with selective activity in voltage-gated sodium channels” (Merck Sharp & Dohme Corp., priority 2012, dated 2016).

Legend:
Assay type in all cases: cell-based
[1] = biological target: T1, human Nav1.5 channels stably expressed in HEK 293 cells (Homo sapiens, UniProt Q14524); assay: IonWorks Quattro automated patch-clamp, inactivated state block; conditions: IonWorks technique
T1 construct: expressed in transfected cells; host or cells: HEK 293
Experimental: (§1) For all electrophysiology experiments, offline analysis was used to correct for current rundown and to determine percent inhibition as a function of drug concentration. IC50 values were determined by fitting to the Hill equation.
(§2) Cell Based Assays for Nav 1.7 and Nav 1.5 Activity
(§3) Compounds were tested on human Nav1.7 and Nav1.5 channels stably expressed in HEK 293 cells. […] Cells were sealed on a planar substrate using the Population Patch […] (PPC) technology. Electrical access was obtained using both nystatin and amphotericin. A double-pulse protocol was used for the determination of IC50 values for inactivated state block. Nav1.7 and Nav1.5 expressing cells were voltage clamped at −100 mV and −110 mV, respectively. A depolarizing prepulse to −10 mV (Nav1.7) or −30 mV (Nav1.5) for 1000 ms followed by a 10 ms repolarization to −100 mV (Nav1.7) or −110 mV (Nav1.5) was given to generate fractional channel inactivation of 50%, followed by a 10 ms test pulse to −10 mV (Nav1.7) or −30 mV (Nav1.5) to measure peak current in control conditions and after compound addition. The following recording solutions were used (mM). External: 150 NaCl, 2 CaCl2, 5 KCl, 1 MgCl2, 10 HEPES, 12 Dextrose; internal: 120 CsF, 30 CsCl, 10 EGTA, 5 HEPES, 5 NaF, 2 MgCl2.

[2] = biological target: T2, human Nav1.7 channels stably expressed in HEK 293 cells (Homo sapiens, UniProt Q15858); assay: as above; conditions: IonWorks technique; read-out: Nav 1.7 potency
T2 construct: expressed in transfected cells; host or cells: HEK 293
Experimental: as §1, §2, §3

[3] = biological target: T1, human Nav1.5 channels stably expressed in HEK 293 cells; assay: PatchXpress 7000 automated patch-clamp, inactivated state block; conditions: PatchXpress technique
Experimental: as §1
(§4) Sodium Current Measurements on the PatchXpress 7000®:
(§5) To measure inactivated state block of sodium channels, test compounds were characterized in an automated PatchXpress® assay (Molecular Devices) using a double-pulse protocol on human Nav1.7 and Nav1.5 channels stably expressed in HEK 293 cells. Cells were held at a potential 20 mV negative to V0.5 inact. An 8000 ms pre-pulse 7 mV positive to V0.5 inact was given followed by a hyperpolarizing 2 ms pulse to −120 mV and a 20 ms test pulse to −20 mV. Protocol was applied to cells in the absence, presence of compound and after washout. The temperature of PatchXpress instruments was maintained at 22° C. The following recording solutions were used. Internal solution (mM): 30 CsCl, 5 HEPES, 10 EGTA, 120 CsF, 5 NaF, 2 MgCl2. External solution (mM): 120 NMDG, 40 NaCl, 1 KCl, 0.5 MgCl2, 5 HEPES, 2.7 CaCl2.

[4] = biological target: T2, human Nav1.7 channels stably expressed in HEK 293 cells; assay: as above; conditions: PatchXpress technique; read-out: Nav 1.7 potency
Experimental: as §1, §4, §5

T2 sequence (Q15858 whole entry): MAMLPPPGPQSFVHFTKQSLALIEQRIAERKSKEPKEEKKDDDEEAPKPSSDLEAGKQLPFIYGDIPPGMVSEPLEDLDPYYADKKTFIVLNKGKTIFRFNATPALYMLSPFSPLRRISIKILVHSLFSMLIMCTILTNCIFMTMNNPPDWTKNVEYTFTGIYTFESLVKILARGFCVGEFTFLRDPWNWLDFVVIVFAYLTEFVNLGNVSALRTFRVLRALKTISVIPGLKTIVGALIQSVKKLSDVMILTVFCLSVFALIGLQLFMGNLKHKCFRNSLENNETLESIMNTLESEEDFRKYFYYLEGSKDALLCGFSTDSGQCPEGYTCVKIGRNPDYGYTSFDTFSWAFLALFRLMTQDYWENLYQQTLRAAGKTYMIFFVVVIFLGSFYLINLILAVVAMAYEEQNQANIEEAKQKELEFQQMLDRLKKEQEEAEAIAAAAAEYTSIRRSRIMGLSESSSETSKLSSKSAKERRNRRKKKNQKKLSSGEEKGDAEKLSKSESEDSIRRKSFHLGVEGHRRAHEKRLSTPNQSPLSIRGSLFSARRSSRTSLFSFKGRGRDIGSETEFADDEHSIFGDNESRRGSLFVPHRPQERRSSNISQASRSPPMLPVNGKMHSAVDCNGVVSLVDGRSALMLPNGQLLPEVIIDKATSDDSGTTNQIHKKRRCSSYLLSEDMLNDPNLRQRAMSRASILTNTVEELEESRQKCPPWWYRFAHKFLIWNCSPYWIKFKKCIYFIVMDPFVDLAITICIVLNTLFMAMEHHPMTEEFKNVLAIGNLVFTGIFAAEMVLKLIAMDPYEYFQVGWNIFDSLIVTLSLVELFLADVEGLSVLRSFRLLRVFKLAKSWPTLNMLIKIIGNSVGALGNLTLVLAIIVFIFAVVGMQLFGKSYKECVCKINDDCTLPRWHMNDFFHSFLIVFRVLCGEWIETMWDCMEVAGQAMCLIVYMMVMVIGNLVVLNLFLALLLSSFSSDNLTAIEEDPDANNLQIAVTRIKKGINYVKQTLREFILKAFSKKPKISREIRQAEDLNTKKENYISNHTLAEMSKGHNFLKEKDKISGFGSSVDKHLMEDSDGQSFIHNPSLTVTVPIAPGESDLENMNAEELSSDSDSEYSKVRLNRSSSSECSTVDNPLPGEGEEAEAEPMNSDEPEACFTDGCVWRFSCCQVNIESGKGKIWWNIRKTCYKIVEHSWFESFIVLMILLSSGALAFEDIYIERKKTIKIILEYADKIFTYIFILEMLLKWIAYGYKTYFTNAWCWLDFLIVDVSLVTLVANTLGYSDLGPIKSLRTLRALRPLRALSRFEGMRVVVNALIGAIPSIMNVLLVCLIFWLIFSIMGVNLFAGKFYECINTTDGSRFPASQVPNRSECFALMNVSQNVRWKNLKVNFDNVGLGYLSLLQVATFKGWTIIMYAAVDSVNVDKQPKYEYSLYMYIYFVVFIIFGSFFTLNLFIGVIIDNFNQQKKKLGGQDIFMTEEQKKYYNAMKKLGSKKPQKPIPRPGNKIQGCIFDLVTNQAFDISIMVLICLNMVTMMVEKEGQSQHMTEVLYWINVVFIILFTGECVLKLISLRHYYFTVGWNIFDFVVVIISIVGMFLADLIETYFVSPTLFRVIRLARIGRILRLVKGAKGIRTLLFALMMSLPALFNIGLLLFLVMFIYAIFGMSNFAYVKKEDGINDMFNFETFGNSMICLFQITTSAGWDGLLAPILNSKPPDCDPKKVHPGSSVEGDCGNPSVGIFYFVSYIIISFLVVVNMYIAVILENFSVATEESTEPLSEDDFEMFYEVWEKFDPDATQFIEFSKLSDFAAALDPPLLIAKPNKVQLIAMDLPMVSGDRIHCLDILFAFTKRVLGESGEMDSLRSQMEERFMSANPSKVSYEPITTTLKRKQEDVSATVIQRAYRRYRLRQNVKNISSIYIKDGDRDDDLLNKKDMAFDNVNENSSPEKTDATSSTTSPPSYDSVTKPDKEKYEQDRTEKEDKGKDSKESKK
T1 sequence (Q14524 whole entry): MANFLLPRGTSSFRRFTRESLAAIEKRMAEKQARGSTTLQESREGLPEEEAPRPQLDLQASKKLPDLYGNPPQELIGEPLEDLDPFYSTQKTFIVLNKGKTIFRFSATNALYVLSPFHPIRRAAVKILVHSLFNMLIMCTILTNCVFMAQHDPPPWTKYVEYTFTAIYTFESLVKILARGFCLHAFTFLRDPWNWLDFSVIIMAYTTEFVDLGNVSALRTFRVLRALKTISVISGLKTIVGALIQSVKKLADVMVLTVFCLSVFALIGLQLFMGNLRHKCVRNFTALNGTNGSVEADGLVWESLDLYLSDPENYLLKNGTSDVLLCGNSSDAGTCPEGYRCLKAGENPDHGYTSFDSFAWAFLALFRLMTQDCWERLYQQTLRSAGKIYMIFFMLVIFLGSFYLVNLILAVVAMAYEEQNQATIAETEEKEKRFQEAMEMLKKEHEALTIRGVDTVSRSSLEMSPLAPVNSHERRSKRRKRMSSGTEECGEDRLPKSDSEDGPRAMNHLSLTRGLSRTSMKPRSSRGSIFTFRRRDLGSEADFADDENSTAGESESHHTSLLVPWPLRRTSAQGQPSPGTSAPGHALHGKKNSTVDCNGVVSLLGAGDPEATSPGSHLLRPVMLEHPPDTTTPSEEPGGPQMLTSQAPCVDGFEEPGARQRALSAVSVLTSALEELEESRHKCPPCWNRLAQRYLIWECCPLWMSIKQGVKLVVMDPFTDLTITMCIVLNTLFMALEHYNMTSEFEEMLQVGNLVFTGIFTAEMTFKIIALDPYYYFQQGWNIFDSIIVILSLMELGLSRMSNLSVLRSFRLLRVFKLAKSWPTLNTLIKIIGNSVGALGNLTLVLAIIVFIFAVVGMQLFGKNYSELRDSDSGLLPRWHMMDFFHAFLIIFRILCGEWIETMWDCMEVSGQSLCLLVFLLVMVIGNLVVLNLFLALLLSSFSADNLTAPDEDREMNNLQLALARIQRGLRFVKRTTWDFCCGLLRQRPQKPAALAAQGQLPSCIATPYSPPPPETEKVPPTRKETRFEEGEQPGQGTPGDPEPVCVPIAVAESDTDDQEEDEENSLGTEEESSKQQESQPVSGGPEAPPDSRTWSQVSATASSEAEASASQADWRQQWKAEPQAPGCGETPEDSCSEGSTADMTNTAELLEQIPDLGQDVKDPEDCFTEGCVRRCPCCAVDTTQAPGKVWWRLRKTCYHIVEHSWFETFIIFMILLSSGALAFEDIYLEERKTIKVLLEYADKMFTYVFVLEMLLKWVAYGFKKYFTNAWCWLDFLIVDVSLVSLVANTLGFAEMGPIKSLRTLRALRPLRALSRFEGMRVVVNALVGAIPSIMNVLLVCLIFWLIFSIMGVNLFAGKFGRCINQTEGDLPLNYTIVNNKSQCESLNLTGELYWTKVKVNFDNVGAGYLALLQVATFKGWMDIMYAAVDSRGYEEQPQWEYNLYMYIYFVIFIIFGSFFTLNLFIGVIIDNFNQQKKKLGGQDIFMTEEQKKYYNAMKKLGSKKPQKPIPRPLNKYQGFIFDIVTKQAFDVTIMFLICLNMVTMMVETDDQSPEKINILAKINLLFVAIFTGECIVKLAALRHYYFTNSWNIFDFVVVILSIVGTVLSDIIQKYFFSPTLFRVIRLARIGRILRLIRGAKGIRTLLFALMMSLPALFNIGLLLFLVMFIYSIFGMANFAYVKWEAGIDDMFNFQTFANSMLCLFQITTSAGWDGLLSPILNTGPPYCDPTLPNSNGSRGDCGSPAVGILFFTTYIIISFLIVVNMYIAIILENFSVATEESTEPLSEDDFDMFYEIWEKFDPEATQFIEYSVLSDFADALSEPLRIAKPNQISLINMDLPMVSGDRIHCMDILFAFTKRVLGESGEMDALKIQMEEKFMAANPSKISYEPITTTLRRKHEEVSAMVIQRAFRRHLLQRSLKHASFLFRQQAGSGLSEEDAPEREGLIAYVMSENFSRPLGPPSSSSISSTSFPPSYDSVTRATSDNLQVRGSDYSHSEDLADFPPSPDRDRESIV

Row | IC50 [2] [nM] | IC50 [4] [nM] | SMILES | Ratio 1.5:1.7 = Nav 1.5 potency (nM)/Nav1.7 potency (nM) [1] | Ratio 1.5:1.7 = Nav 1.5 potency (nM)/Nav1.7 potency (nM) [3]
1 | 1480 | 2900 | O=S(=O)(Nc1ncns1)c1ccc2c(cnn2Cc2ccc(Cl)cc2-c2cccc3c2CCNC3)c1 [Ex-25, 1-[4-chloro-2-(1,2,3,4-tetrahydroisoquinolin-5-yl)benzyl]-N-1,2,4-thiadiazol-5-yl-1H-indazole-5-sulfonamide] | 23 | 10
2 | 159 | 127 | NC/C=C/c1ccccc1Cn1ncc2cc(S(=O)(=O)Nc3ncns3)ccc21 [Ex-15, 1-{2-[(1E)-3-aminoprop-1-en-1-yl]benzyl}-N-1,2,4-thiadiazol-5-yl-1H-indazole-5-sulfonamide] | 207 | 237
3 | 960 |  | CN(C)CCNC(=O)c1cccc(-c2cc(Cl)ccc2Cn2ncc3cc(S(=O)(=O)Nc4ncns4)ccc32)c1 [Ex-20, 5′-chloro-N-[2-(dimethylamino)ethyl]-2′-{[5-(1,2,4-thiadiazol-5-ylsulfamoyl)-1H-indazol-1-yl]methyl}biphenyl-3-carboxamide] | 34 | 
4 | 1720 |  | NC/C=C/c1ccccc1Cn1ncc2cc(S(=O)(=O)Nc3ncns3)cc(Cl)c21 [Ex-63, 1-{2-[(1E)-3-aminoprop-1-en-1-yl]benzyl}-7-chloro-N-1,2,4-thiadiazol-5-yl-1H-indazole-5-sulfonamide] | > 19 | 
5 | 24 | 21 | NC1CCc2cccc(Cn3ncc4cc(S(=O)(=O)Nc5ncns5)c(F)cc43)c2C1 (single isomer, unassigned) [Ex-14, (S or R)-1-((7-amino-5,6,7,8-tetrahydronaphthalen-1-yl)methyl)-6-fluoro-N-(1,2,4-thiadiazol-5-yl)-1H-indazole-5-sulfonamide] | 1394 | 1480
6 | 1040 | 410 | C[C@H](c1ccccc1)n1ncc2cc(S(=O)(=O)Nc3ncns3)c(F)cc21 [Ex-9, 6-fluoro-1-[(1R)-1-phenylethyl]-N-1,2,4-thiadiazol-5-yl-1H-indazole-5-sulfonamide] | 27 | 65
7 | 21 | 94 | C[C@H](c1cccc2c1CNCC2)n1ncc2cc(S(=O)(=O)Nc3ncns3)c(F)cc21 [Ex-6, (R)-6-fluoro-1-(1-(1,2,3,4-tetrahydroisoquinolin-8-yl)ethyl)-N-(1,2,4-thiadiazol-5-yl)-1H-indazole-5-sulfonamide] | 1066 | 320
8 | 413 | 939 | NC/C=C/c1cc(Cl)ccc1Cn1ncc2cc(S(=O)(=O)Nc3ncns3)ccc21 [Ex-16, 1-{2-[(1E)-3-aminoprop-1-en-1-yl]-4-chlorobenzyl}-N-1,2,4-thiadiazol-5-yl-1H-indazole-5-sulfonamide] | 81 | 32
9 | 777 | 833 | C[C@@H](c1cccc2c1CNCC2)n1ncc2cc(S(=O)(=O)Nc3ncns3)c(F)cc21 [Ex-64, (S)-6-fluoro-1-(1-(1,2,3,4-tetrahydroisoquinolin-8-yl)ethyl)-N-(1,2,4-thiadiazol-5-yl)-1H-indazole-5-sulfonamide] | 42 | 36
10 | 25 | 20 | O=S(=O)(Nc1nccs1)c1cc2cnn(Cc3cccc4c3CNCC4)c2cc1F [Ex-2, 6-fluoro-1-((1,2,3,4-tetrahydroisoquinolin-8-yl)methyl)-N-(thiazol-2-yl)-1H-indazole-5-sulfonamide] | 1200 | 2025
11 | 1080 | 782 | O=S(=O)(Nc1ncns1)c1cc2cnn(Cc3ccccc3-c3cccc4c3CCNC4)c2cc1F [Ex-10, 6-fluoro-1-[2-(1,2,3,4-tetrahydroisoquinolin-5-yl)benzyl]-N-1,2,4-thiadiazol-5-yl-1H-indazole-5-sulfonamide] | 30 | 38
12 | 340 |  | O=S(=O)(Nc1ncns1)c1cc2cnn(Cc3ccccc3I)c2cc1F [Ex-7, 6-fluoro-1-(2-iodobenzyl)-N-1,2,4-thiadiazol-5-yl-1H-indazole-5-sulfonamide] | 19 | 
13 |  | 111 | C[C@H](c1cccc2c1CNCC2)n1cc2cc(S(=O)(=O)Nc3ncc(Cl)s3)c(F)cc2n1 [Ex-55, N-(5-chloro-1,3-thiazol-2-yl)-6-fluoro-2-[(1R)-1-(1,2,3,4-tetrahydro-isoquinolin-8-yl)ethyl]-2H-indazole-5-sulfonamide] |  | 152
14 |  | 2040 | CC(C)(N)CC#Cc1ccccc1Cn1ncc2cc(S(=O)(=O)Nc3cccc(F)n3)c(F)cc21 [Ex-45, 1-[2-(4-amino-4-methylpent-1-yn-1-yl)benzyl]-6-fluoro-N-(6-fluoropyridin-2-yl)-1H-indazole-5-sulfonamide] |  | 18
15 |  | 61 | Cc1cc2c(cnn2Cc2cccc3c2CC(N)CC3)cc1S(=O)(=O)Nc1cccc(F)n1 (stereo not shown) [Ex-61, 1-[(7-amino-5,6,7,8-tetrahydronaphthalen-1-yl)methyl]-N-(6-fluoropyridin-2-yl)-6-methyl-1H-indazole-5-sulfonamide] |  | 171
16 |  | 568 | NCc1ccccc1Cn1ncc2cc(S(=O)(=O)Nc3cccc(F)n3)c(F)cc21 [Ex-35, 1-[2-(aminomethyl)benzyl]-6-fluoro-N-(6-fluoropyridin-2-yl)-1H-indazole-5-sulfonamide] |  | 53
17 |  | 244 | C[C@H](c1ccccc1C#CCN)n1ncc2cc(S(=O)(=O)Nc3ncc(Cl)s3)c(F)cc21 [Ex-56, 1-{(1R)-1-[2-(3-aminoprop-1-yn-1-yl)phenyl]ethyl}-N-(5-chloro-1,3-thiazol-2-yl)-6-fluoro-1H-indazole-5-sulfonamide] |  | 39
18 |  | 546 | C[C@H](c1ccccc1C#C[C@@H]1CCCC[C@@H]1N)n1ncc2cc(S(=O)(=O)Nc3cccc(F)n3)c(F)cc21 [Ex-47, 1-[(1R)-1-(2-{[(1S,2S)-2-amino-cyclohexyl]ethynyl}phenyl)ethyl]-6-fluoro-N-(6-fluoropyridin-2-yl)-1H-indazole-5-sulfonamide] |  | 15
19 |  | 1070 | O=S(=O)(Nc1cccc(F)n1)c1cc2cnn(Cc3ccccc3I)c2cc1F [Ex-41, 6-fluoro-N-(6-fluoropyridin-2-yl)-1-(2-iodobenzyl)-1H-indazole-5-sulfonamide] |  | 7
20 |  | 372 | C[C@H](c1cccc2c1CNCC2)n1ncc2cc(S(=O)(=O)Nc3cccc(F)n3)c(F)cc21 [Ex-37, 6-fluoro-N-(6-fluoropyridin-2-yl)-1-[(1R)-1-(1,2,3,4-tetrahydroisoquinolin-8-yl)ethyl]-1H-indazole-5-sulfonamide] |  | 64

Row | SMILES | IC50 [2] [nM] | IC50 [4] [nM] | Ratio 1.5:1.7 = Nav 1.5 potency (nM)/Nav1.7 potency (nM) [1] | Ratio 1.5:1.7 = Nav 1.5 potency (nM)/Nav1.7 potency (nM) [3]
21 | O=S(=O)(Nc1ncns1)c1ccc2c(cnn2Cc2ccc(Cl)cc2C2=CCNCC2)c1 [Ex-18, 1-[4-chloro-2-(1,2,3,6-tetrahydropyridin-4-yl)benzyl]-N-1,2,4-thiadiazol-5-yl-1H-indazole-5-sulfonamide] | 781 | 5210 | 42 | 6
22 | O=S(=O)(Nc1ncns1)c1ccc2c(cnn2Cc2ccc(Cl)cc2C2=CC3CCC(C2)N3)c1 (stereo not shown) [Ex-21, 1-[2-(8-azabicyclo[3.2.1]oct-2-en-3-yl)-4-chlorobenzyl]-N-1,2,4-thiadiazol-5-yl-1H-indazole-5-sulfonamide] | 1260 |  | 26 | 
